Results reported in patent US20250082650A1, “COMBINED USE OF MULTIKINASE INHIBITOR” (TRANSTHERA SCIENCES (NANJING), INC., priority 2021, published 2025).

Experiments:
[1] = system: mouse colon cancer MC38 subcutaneous homograft tumor; experiment: In vivo pharmacodynamic study, MC38 subcutaneous homograft tumor model, combination with PD-L1 antibody; conditions: MC38 tumor-bearing C57BL/6 mice; Compound 1 7.5 mg/kg oral Qd; PD-L1 antibody 5 mg/kg IP Q3d; 25 days
Protocol: Example 8: In Vivo Pharmacodynamic Study of the Compound of the Present Invention Combined with PD-L1 on Mouse Colon Cancer MC38 Subcutaneous Homograft Tumor Model
MC38 cells: mouse colon cancer cells from ATCC.
(§1) C57BL/6 mice, 6- to 8-week-old, female, from Shanghai Slac Laboratory Animal Co., Ltd.
(§2) PD-L1 antibody: InVivoMAb anti-mouse PD-L1 (B7-H1), clone number: 10F.9G2 (IgG2b), company: BioXcell, Cat. No. BE0101.
MC38 cells were cultured in monolayer in vitro. When the cells were in the exponential growth phase, the cells were harvested, counted, and inoculated.
(§3) 0.04 mL of a cell suspension containing about 3×10^5 MC38 cells was inoculated subcutaneously into the back skin of female C57BL/6 mice. The mice were grouped for administration when the average volume of tumors reached approximately 60 mm^3. Grouping method: Animals were weighed before administration and tumor volumes were measured. Grouping was designed in blocks according to the tumor volume, with 8 mice per group.
Administration was carried out as in Table 6 below.
(§4) Animals were monitored daily for health status and mortality, body weight and tumor volume were measured twice a week, and samples were collected after the last administration. The therapeutic effect of tumor volume was evaluated by TGI %, and the evaluation was conducted as shown in Example 5.

[2] = system: IDO-1 expression in Hela cells; experiment: Regulation of IDO protein levels in Hela cells (western blot); assay type: cell-based; conditions: interferon 50 ng/mL, co-incubation 16 h, 10-10000 nM, FIG. 2
Description: Example 6: Study on Regulation of IDO Protein Levels in Hela Cells by the Compound of the Present Invention
Cells: Hela Cells from Cobioer.
Reagents: DMEM medium, fetal bovine serum, penicillin, streptomycin, […] from SinoBiological, protein loading buffer, RIPA protein lysis buffer, protease inhibitor, BCA protein content assay kit, trihydroxymethyl aminomethane, sodium dodecyl sulfate, ammonium persulfate, 30% Acry-Bis solution, phosphate buffer, Tween 20, bovine serum albumin, GAPDH antibody (rabbit) from CST company, IDO-1 antibody (rabbit) from CST, anti-rabbit secondary antibody from CST, and protein marker.
Cell culture and plating: Hela cells were cultured in a DMEM medium containing 10% fetal bovine serum and 1% penicillin-streptomycin double antibody and incubated in a water-jacketed incubator at 37° C. and 5% CO2. Subculture treatment was carried out in a 1:4 ratio. When the cells were in the exponential growth phase, the cells were harvested, counted, plated at a density of 5×10^5 cells/well in a 6-well cell culture plate, and cultured overnight. […]
Protein content assay and sample configuration: Protein content in each well was measured by using a BCA kit and Nanodrop, and according to the detection result, a sample loading buffer and a lysis buffer were added to adjust to a system of […] of protein/10 μL for sample loading of Western Blot detection. […]

[3] = system: mouse pancreatic cancer Pan02 subcutaneous homograft tumor; experiment: In vivo pharmacodynamic study, Pan02 subcutaneous homograft tumor model, combination with PD-L1 antibody; conditions: Pan02 tumor-bearing C57BL/6 mice; Compound 1 7.5 mg/kg oral Qd; PD-L1 antibody 10 mg/kg IP Q3d; 25 days
Protocol: Example 9: In Vivo Pharmacodynamic Study of the Compound of the Present Invention Combined with PD-L1 on Mouse Pancreatic Cancer Pan02 Subcutaneous Homograft Tumor Model
Pan02 cells: mouse pancreatic cancer cells from ATCC.
as §1
PD-L1 antibody: InVivoMAb anti-mouse PD-L1 (B7-H1), clone number: 10F.9G2 (IgG2b), company: BioXcell, Cat. No. BE0101
Pan02 cells were cultured in monolayer in vitro. When the cells were in the exponential growth phase, the cells were harvested, counted, and inoculated.
as §3, with “0.06” for “0.04”, “1×10^6 Pan02” for “3×10^5 MC38”, “7” for “8”
Administration was carried out as in Table 8 below.
as §4

[4] = system: mouse colon cancer cell CT26.wt subcutaneous homograft tumor; experiment: In vivo pharmacodynamic study, CT26.wt subcutaneous homograft tumor model, combination with PD-1 antibody; conditions: CT26.wt tumor-bearing Balb/c mice, day 13; Compound 1 15 mg/kg PO QD; PD-1 antibody 10 mg/kg IP BIW; 1-14 days
Description: Example 5: In Vivo Pharmacodynamic Study of the Compound of the Present Invention Combined with PD-1 Antibody on Mouse Colon Cancer Cell CT26.Wt Subcutaneous Homograft Tumor Model
Test sample: compound 1 of the present invention, having a structure shown above.
CT26.wt cells: mouse colon cancer cells from the Cell Bank of the Chinese Academy of Sciences.
Balb/c mice, 6- to 8-week-old, female, from Beijing Vital River Laboratory Animal Technology Co., Ltd.
PD-1 antibody: InVivoMAb anti-mouse PD-1, clone number: RMP1-14, company: BioXcell, Cat. No. BE0146.
CT26.wt cells were cultured in monolayer in vitro under the condition of an RPMI1640 medium supplemented with 10% heat-inactivated fetal bovine serum and 1% penicillin-streptomycin double antibody, and the culture was carried out at 37° C. and 5% CO2. […] When the cells were in the exponential growth phase, the cells were harvested, counted, and inoculated.
0.1 mL of a cell suspension containing about 1×10^6 CT26.wt cells (cells suspended in serum-free basal RPMI1640 medium) was inoculated subcutaneously into the left back skin of female Balb/c mice. […] Grouping method: Animals were weighed before administration and tumor volumes were measured. […]
Animals were monitored daily for health status and mortality, body weight and tumor volume were measured twice a week, and samples were collected after the last administration. […]

[5] = system: mouse B cell lymphoma A20 subcutaneous homograft tumor; experiment: In vivo pharmacodynamic study, A20 subcutaneous homograft tumor model, combination with PD-L1 antibody; conditions: A20 tumor-bearing Balb/c mice; Compound 1 7.5 mg/kg oral Qd; PD-L1 antibody 10 mg/kg IP Q3d; 19 days
Protocol: Example 7: In Vivo Pharmacodynamic Study of the Compound of the Present Invention Combined with PD-L1 on Mouse B Cell Lymphoma A20 Subcutaneous Homograft Tumor Model
A20 cells: mouse B cell lymphoma cells from ATCC.
Balb/c mice, 6- to 8-week-old, female, from Zhejiang Vital River Laboratory Animal Technology Co., Ltd.
as §2
A20 cells were cultured in monolayer in vitro. When the cells were in the exponential growth phase, the cells were harvested, counted, and inoculated.
as §3, with “6×10^5 A20” for “3×10^5 MC38”, “Balb/c” for “C57BL/6”
Administration was carried out as in Table 4 below.
as §4

endometrial cancer = conditions: PD-1 antibody combined with E7080, endometrial cancer, ASCO 2017 clinical data; cited from earlier work

Q: For Cc1[nH]nc2c1N=C(c1ccccc1Cl)c1cnc(N3CCOCC3)cc1N2 [Compound 1, 4-(5-(2-chlorophenyl)-3-methyl-2,10-dihydropyrazolo[4,3-b]pyrido[4,3-e][1,4]diazepin-8-yl)morpholine], which TGI [1] is on record?
A: 50%

Q: What about the Tumor volume [1] of the same compound?
A: 554 mm^3

Q: And the “Expression of IDO-1 in Hela cells” value [2]?
A: could effectively reduce the expression of IDO-1

Q: And the TGI [3]?
A: 71%

Q: What about the Tumor volume [3] of the same compound?
A: 921 mm^3

Q: And the “TGI (tumor volume inhibition rate)” value [4]?
A: 48%

Q: What about the Tumor volume [4] of the same compound?
A: 1150 ± 142 mm^3

Q: What about the TGI [5] of the same compound?
A: 26%

Q: And the Tumor volume [5]?
A: 519 mm^3

Q: Which Control rate (endometrial cancer) does the source give for COc1cc2nccc(Oc3ccc(NC(=O)NC4CC4)c(Cl)c3)c2cc1C(N)=O [Compound E7080] here?
A: 96%
